Measured values taken from US6358885B1, “Substituted phenylheterocyclic herbicides” (Mississippi State University, priority 1992, dated 2002).

Columns and labels:
[1] = tested on: blackgrass; assay: Test B preemergence/postemergence greenhouse plant response rating 0 to 10; type: in vivo, Alopecurus myosuroides; details: 0 to 10 scale
Method in brief: (§1)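 Planted seeds are treated preemergence with compound dissolved in a non-phytotoxic solvent, while postemergence applications go onto plants of two to eighteen cm. Plants stay in the greenhouse twelve to sixteen days and are then rated visually relative to controls.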

[2] = tested on: ryegrass; assay: Test C preemergence/postemergence greenhouse plant response rating 0 to 100; type: in vivo, Lolium multiflorum; details: PREEMERGENCE; for Plant response rating Ryegrass: 0 to 100 scale
From the text: (§2) The compounds evaluated in this test were formulated in a non-phytoxic solvent and applied to the soil surface before plant seedlings emerged (preemergence application), to water that covered the soil surface (flood application), and to plants that were in the one-to-four leaf stage (postemergence application). A sandy loam soil was used for the preemergence and postemergence tests, while a silt loam soil was used in the flood test. Water depth was approximately 2.5 cm for the flood test and was maintained at this level for the duration of the test. Plant species in the preemergence and postemergence tests consisted of barley (Hordeum vulgare), bedstraw (Galium aparine), blackgrass (Alopecurus myosuroides), chickweed (Stellaria media), corn (Zea mays), cotton (Gossypium hirsutum), crabgrass (Digitaria sanguinalis), downy brome (Bromus tectorum), giant foxtail (Setaria faberii), lambsquarters (Chenopodium album), morningglory (Ipomoea hederacea), pigweed ([…]), rape (Brassica napus), ryegrass (Lolium multiflorum), sorghum (Sorghum bicolor), soybean (Glycine max), speedwell (Veronica persica), sugar beet (Beta vulgaris), velvetleaf (Abutilon theophrasti), wheat (Triticum aestivum), wild buckwheat (Polygonum convolvulus), and wild oat (Avena fatua). All plant species were planted one day before application of the compound for the preemergence portion-of this test. Plantings of these species were adjusted to produce plants of appropriate size for the post-emergence portion of the test. […] All plant species were grown using normal greenhouse practices. Visual evaluations of injury expressed on treated plants, when compared to untreated controls, were recorded approximately fourteen to twenty one days after application of the test compound. […] A dash (-) response means no test result.

[3] = tested on: bedstraw; assay: Test B preemergence/postemergence greenhouse plant response rating 0 to 10; type: in vivo, Galium aparine; details: 0 to 10 scale
Method in brief: as §1

[4] = tested on: wild oat; assay: as above; type: in vivo, Avena fatua; details: 0 to 10 scale
Method in brief: as §1

[5] = tested on: wheat; assay: Test C preemergence/postemergence greenhouse plant response rating 0 to 100; type: in vivo, Triticum aestivum; details: PREEMERGENCE
From the text: as §2

[6] = tested on: cotton; assay: as above; type: in vivo, Gossypium hirsutum; details: PREEMERGENCE; for Plant response rating, Cotton: 0 to 100 scale
From the text: as §2

[7] = tested on: cocklebur; assay: Test B preemergence/postemergence greenhouse plant response rating 0 to 10; type: in vivo, Xanthium pensylvanicum; details: 0 to 10 scale
Method in brief: as §1

[8] = tested on: pigweed; assay: Test C preemergence/postemergence greenhouse plant response rating 0 to 100; type: in vivo, Amaranthusretroflexus; details: PREEMERGENCE; for Plant response rating Pigweed: 0 to 100 scale
From the text: as §2

[9] = tested on: morningglory; assay: Test B preemergence/postemergence greenhouse plant response rating 0 to 10; type: in vivo, Ipomoea hederacea; details: 0 to 10 scale
Method in brief: as §1

[10] = tested on: blackgrass; assay: Test C preemergence/postemergence greenhouse plant response rating 0 to 100; type: in vivo, Alopecurus myosuroides; details: PREEMERGENCE; for Plant response rating, Blackgrass: 0 to 100 scale
From the text: as §2

[11] = tested on: sugar beet; assay: Test B preemergence/postemergence greenhouse plant response rating 0 to 10; type: in vivo, Beta vulgaris; details: 0 to 10 scale
Method in brief: as §1

In the case of `CCCN1C(=O)COc2cc(F)c(-c3nn4c(c3Br)CCCC4)cc21` [Compound 63], the “Plant response rating, Blackgrass” value ([1]; POSTEMERGENCE, Rate 10 g/ha) was 4, the “Plant response rating, Blackgrass” value ([1]; POSTEMERGENCE, Rate 50 g/ha) was 4 and the “Plant response rating, Blackgrass” value ([1]; PREEMERGENCE, Rate 10 g/ha) was 0. The “Plant response rating, Blackgrass” value ([1]; PREEMERGENCE, Rate 50 g/ha) was 3, the “Plant response rating Ryegrass” value ([2]; 62 g/ha) was 40 and the “Plant response rating Ryegrass” value ([2]; 250 g/ha) was 80. The “Plant response rating (0 to 100), Ryegrass” value ([2]; Rate 4 g/ha) was 0, the “Plant response rating (0 to 100), Ryegrass” value ([2]; Rate 16 g/ha) was 0 and the “Plant response rating, Bedstraw” value ([3]; POSTEMERGENCE, Rate 10 g/ha) was 6. The “Plant response rating, Bedstraw” value ([3]; POSTEMERGENCE, Rate 50 g/ha) was 8, the “Plant response rating, Bedstraw” value ([3]; PREEMERGENCE, Rate 10 g/ha) was 4 and the “Plant response rating, Bedstraw” value ([3]; PREEMERGENCE, Rate 50 g/ha) was 10. The “Plant response rating, Wild oat” value ([4]; POSTEMERGENCE, Rate 10 g/ha) was 4, the “Plant response rating, Wild oat” value ([4]; POSTEMERGENCE, Rate 50 g/ha) was 6 and the “Plant response rating, Wild oat” value ([4]; PREEMERGENCE, Rate 50 g/ha) was 3. For the same compound, the “Plant response rating, Wheat” value ([5]; 250 g/ha, 0 to 100 scale) was 50, the “Plant response rating (0 to 100), Wheat” value ([5]; Rate 4 g/ha) was 0 and the “Plant response rating (0 to 100), Wheat” value ([5]; Rate 16 g/ha) was 0. The “Plant response rating, Cotton” value ([6]; 62 g/ha) was 20, the “Plant response rating, Cotton” value ([6]; 250 g/ha) was 70 and the “Plant response rating (0 to 100), Cotton” value ([6]; Rate 4 g/ha) was 0. The “Plant response rating (0 to 100), Cotton” value ([6]; Rate 16 g/ha) was 0, the “Plant response rating, Cocklebur” value ([7]; POSTEMERGENCE, Rate 10 g/ha) was 8 and the “Plant response rating, Cocklebur” value ([7]; POSTEMERGENCE, Rate 50 g/ha) was 9. For the same compound, the “Plant response rating, Cocklebur” value ([7]; PREEMERGENCE, Rate 10 g/ha) was 0, the “Plant response rating, Cocklebur” value ([7]; PREEMERGENCE, Rate 50 g/ha) was 0 and the “Plant response rating Pigweed” value ([8]; 62 g/ha) was 100. For the same compound, the “Plant response rating Pigweed” value ([8]; 250 g/ha) was 100, the “Plant response rating (0 to 100), Pigweed” value ([8]; Rate 4 g/ha) was 0 and the “Plant response rating (0 to 100), Pigweed” value ([8]; Rate 16 g/ha) was 100. The “Plant response rating, Morningglory” value ([9]; POSTEMERGENCE, Rate 10 g/ha) was 8, the “Plant response rating, Morningglory” value ([9]; POSTEMERGENCE, Rate 50 g/ha) was 10 and the “Plant response rating, Morningglory” value ([9]; PREEMERGENCE, Rate 50 g/ha) was 0. The “Plant response rating, Blackgrass” value ([10]; 62 g/ha) was 50, the “Plant response rating, Blackgrass” value ([10]; 250 g/ha) was 90 and the “Plant response rating (0 to 100), Blackgrass” value ([10]; Rate 4 g/ha) was 10. The “Plant response rating (0 to 100), Blackgrass” value ([10]; Rate 16 g/ha) was 30, the “Plant response rating, Sugar beet” value ([11]; POSTEMERGENCE, Rate 10 g/ha) was 10 and the “Plant response rating, Sugar beet” value ([11]; POSTEMERGENCE, Rate 50 g/ha) was 10. The “Plant response rating, Sugar beet” value ([11]; PREEMERGENCE, Rate 50 g/ha) was 10.
